As a reminder, the IC50 is the concentration at which inhibition is half-maximal.

The experiment has as its target T1, full length active recombinant SYK enzyme (Homo sapiens, UniProt P43405).
T1 construct: full length active recombinant SYK enzyme (Millipore, Calif.); purchased Millipore
In words: Inhibition of Syk tyrosine phosphorylation activity (LANCE TR-FRET kinase assay). Type of experiment: biochemical. As to conditions: 1 nM SYK, 550 nM substrate, 100 μM ATP, 1 hour room temperature. For orientation: TR-FRET usually uses a lanthanide donor and a delayed reading to cut background.
As for `Cn1ccc2c(Nc3nc(N[C@@H]4CCCC[C@@H]4O)ncc3C(N)=O)cccc21` [Example 107, 2-((1R,2S)-2-hydroxycyclohexylamino)-4-(1-methyl-1H-indol-4-ylamino)pyrimidine-5-carboxamide], the IC50 was 100 to 1000 nM.

For `NC(=O)c1cnc(N[C@@H](C2CC2)C2(N)CC2)nc1Nc1cccc(-c2ncccn2)c1` [Example 134, (S)-2-(1-(1-aminocyclopropyl)(cyclopropyl)methylamino)-4-(3-(pyrimidin-2-yl)phenylamino)pyrimidine-5-carboxamide], the IC50 lay in the range of 100 to 1000 nM.

As for `NC(=O)c1cnc(N[C@@H]2CCCC[C@@H]2NC=O)nc1Nc1cccc(-n2nccn2)c1` [Example 10, 4-(3-(2H-1,2,3-triazol-2-yl)phenylamino)-2-((1R,2S)-2-formamidocyclohexylamino)pyrimidine-5-carboxamide], the IC50 was 100 to 1000 nM.

Consider `Cn1ccc2c(Nc3nc(NCC4CC4)ncc3C(N)=O)cccc21` [Example 112, 2-(cyclopropylmethylamino)-4-(1-methyl-1H-indol-4-ylamino)pyrimidine-5-carboxamide], for which the IC50 is 100 to 1000 nM.

On to `NC(=O)c1cnc(N[C@H](C2CC2)C2(N)CC2)nc1Nc1ccc2ncccc2c1` [Example 155, (R)-2-(1-(1-aminocyclopropyl)(cyclopropyl)methylamino)-4-(quinolin-6-ylamino)pyrimidine-5-carboxamide], for which the IC50 was in the range of 1 to 10 nM.

Regarding `NC(=O)c1cnc(N[C@@H]2CCC[C@H](F)[C@@H]2N)nc1Nc1cccc(-n2nccn2)c1` [Example 235, 4-(3-(2H-1,2,3-triazol-2-yl)phenylamino)-2-((1R,2R,3S)-2-amino-3-fluorocyclohexylamino)pyrimidine-5-carboxamide], the IC50 is 10 to 100 nM.

As for `CCc1c(C)n(C)c2cccc(Nc3nc(N[C@@H]4CCCC[C@@H]4N)ncc3C(N)=O)c12` [Example 101, 2-((1R,2S)-2-aminocyclohexylamino)-4-(3-ethyl-1,2-dimethyl-1H-indol-4-ylamino)pyrimidine-5-carboxamide], the IC50 fell in the range of 100 to 1000 nM.

In the case of `NC(=O)c1cnc(N[C@@H]2CCNC2)nc1Nc1ccc2ncccc2c1` [Example 214, (R)-2-(pyrrolidin-3-ylamino)-4-(quinolin-6-ylamino)pyrimidine-5-carboxamide], the IC50 is 10 to 100 nM.

With `CC[C@@H](Nc1ncc(C(N)=O)c(Nc2cccc(-c3ncccn3)c2)n1)C1(N)CC1` [Example 131, (R)-2-(1-(1-aminocyclopropyl)propylamino)-4-(3-(pyrimidin-2-yl)phenylamino)pyrimidine-5-carboxamide], the IC50 lay within 1 to 10 nM.

With `Cc1cccc(Nc2nc(N[C@@H](c3ccccc3)C3(N)CC3)ncc2C(N)=O)c1` [Example 148, (5)-2-(1-(1-aminocyclopropyl)(phenyl)methylamino)-4-(m-tolylamino)pyrimidine-5-carboxamide], the IC50 lay in the range of 100 to 1000 nM.

Source of the values: patent US20140323418A1, “SELECTIVE KINASE INHIBITORS” (PORTOLA PHARMACEUTICALS, INC., priority 2011, published 2014).
